Experimental data from ChEMBL document CHEMBL4196003, “The selectivity and bioavailability improvement of novel oral anticoagulants: An overview” (Eur J Med Chem, 2018).
pIC50, pKi: −log10 of the molar value. Values after ≈ are worked out from the molar mass of the structure shown. One block for each molecule: values may come before it.

Key:
Plasma = assay type: functional, Homo sapiens
Description: Anticoagulant activity in human plasma assessed as concentration required to double activated partial thromboplastin time

Coagulation factor X [1] = target: T1, Coagulation factor X (Homo sapiens, UniProt P00742)
Trypsin [2] = target: T2, Trypsin (Homo sapiens, UniProt P07477+P07478+P35030); assay type: protein assay
Description: Inhibition of trypsin (unknown origin)

in vivo = conditions: dog, po, 1 mg/kg
Description: Half life in dog at 1 mg/kg, po

Trypsin [3] = target: T2, Trypsin; assay type: protein assay; remark: listed apart in the source
Description: Inhibition of human trypsin assessed as release of p-nitroanilide from chromogenic substrate

physchem = conditions: buffer, pH 7.4
Description: Aqueous solubility at pH 7.4

Prothrombin [4] = target: T3, Prothrombin (Homo sapiens, UniProt P00734)
Description: Binding affinity to thrombin (unknown origin)

Prothrombin [5] = target: T3, Prothrombin; remark: listed apart in the source
[6] = target: T4, Coagulation factor VII/tissue factor (Homo sapiens, UniProt P08709); assay type: protein-complex assay
[7] = target: T4, Coagulation factor VII/tissue factor; assay type: protein-complex assay; remark: listed apart in the source
Coagulation factor X [8] = target: T1, Coagulation factor X; remark: listed apart in the source
Prothrombin [9] = target: T3, Prothrombin; remark: listed apart in the source
[10] = cynomolgus monkey, plasma, iv, 0.4 mg/kg
Description: Plasma concentration in cynomolgus monkey at 400 ug/kg/min, iv

[11] = cynomolgus monkey, plasma, iv, 0.06 mg/kg
Description: Plasma concentration in cynomolgus monkey at 60 ug/kg/min, iv

T1 sequence (P00742 41-179 limits assumed): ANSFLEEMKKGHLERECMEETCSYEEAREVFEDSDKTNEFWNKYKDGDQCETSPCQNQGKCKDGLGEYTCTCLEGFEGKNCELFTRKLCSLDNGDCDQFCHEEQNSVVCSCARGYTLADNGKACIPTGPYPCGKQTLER
T1 sequence (P00742 235-488 limits assumed): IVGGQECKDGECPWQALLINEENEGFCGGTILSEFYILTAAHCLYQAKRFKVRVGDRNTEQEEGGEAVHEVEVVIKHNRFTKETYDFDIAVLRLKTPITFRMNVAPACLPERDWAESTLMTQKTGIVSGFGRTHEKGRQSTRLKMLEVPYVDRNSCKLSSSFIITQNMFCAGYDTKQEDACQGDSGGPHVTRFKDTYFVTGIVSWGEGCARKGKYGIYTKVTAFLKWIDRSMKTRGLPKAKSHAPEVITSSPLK
T4 sequence (P08709 61-212 limits assumed): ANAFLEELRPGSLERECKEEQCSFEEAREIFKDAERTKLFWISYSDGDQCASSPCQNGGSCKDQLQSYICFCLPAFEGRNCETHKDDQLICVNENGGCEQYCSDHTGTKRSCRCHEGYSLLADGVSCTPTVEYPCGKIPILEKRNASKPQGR
T4 sequence (P08709 213-466 limits assumed): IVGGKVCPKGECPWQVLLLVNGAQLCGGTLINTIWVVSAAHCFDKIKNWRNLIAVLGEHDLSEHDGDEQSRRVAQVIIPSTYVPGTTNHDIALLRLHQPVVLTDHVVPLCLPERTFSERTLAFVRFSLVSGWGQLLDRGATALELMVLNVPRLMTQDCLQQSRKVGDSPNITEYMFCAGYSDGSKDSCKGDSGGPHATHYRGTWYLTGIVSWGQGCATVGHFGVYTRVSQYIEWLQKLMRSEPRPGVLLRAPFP
T4 sequence (P13726 33-295 partner limits assumed): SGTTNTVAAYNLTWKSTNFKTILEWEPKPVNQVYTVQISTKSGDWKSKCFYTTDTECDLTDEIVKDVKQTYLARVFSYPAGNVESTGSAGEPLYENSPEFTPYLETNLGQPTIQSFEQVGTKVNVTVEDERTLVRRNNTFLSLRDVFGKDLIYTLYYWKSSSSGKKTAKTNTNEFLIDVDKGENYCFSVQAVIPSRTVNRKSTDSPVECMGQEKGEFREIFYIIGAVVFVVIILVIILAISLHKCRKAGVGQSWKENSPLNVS

Compound: O=C(Cn1c(Cl)cnc(NCC(F)(F)c2cccc[n+]2[O-])c1=O)NCc1cc(Cl)ccc1-n1cnnn1
2aPTT (Plasma): 130 nM

Compound: O=C(Cn1c(Cl)cnc(NCC(F)(F)c2ccccn2)c1=O)NCc1cc(Cl)ccc1-n1cncn1
2aPTT (Plasma): 170 nM

Compound: CC(C)Nc1ccc(-c2cccc(N)c2)c(CC(=O)NCc2ccc(C(=N)N)cc2)c1F
pIC50 (Coagulation factor X [1]): < 4.52

Compound: Cc1cnc(NCC(F)(F)c2ccccn2)c(=O)n1CC(=O)NCc1ncccc1F
2aPTT (Plasma): 670 nM
Ki (Trypsin [2]): 252 µM

Compound: N#Cc1cnc(NCC(F)(F)c2ccccn2)c(=O)n1CC(=O)NCc1ncccc1F
2aPTT (Plasma): 410 nM
Ki (Trypsin [2]): 213 µM
half-life (in vivo): 6.6 to 9.7 h

Compound: Cc1nc(N)ccc1CNC(=O)Cn1c(C)cnc(NCC(F)(F)c2ccccn2)c1=O
2aPTT (Plasma): 200 nM
Ki (Trypsin [2]): 0.8 µM

Compound: O=C(Cn1c(Cl)cnc(NCC(F)(F)c2cccc[n+]2[O-])c1=O)NCc1ccccc1F
2aPTT (Plasma): 400 nM

Compound: O=C(Cn1c(Cl)cnc(NCC(F)(F)c2cccc[n+]2[O-])c1=O)NCc1ncccc1Cl
2aPTT (Plasma): 470 nM

Compound: O=C(Cn1c(Cl)cnc(NCC(F)(F)c2cccc[n+]2[O-])c1=O)NCc1ncccc1F
2aPTT (Plasma): 540 nM
solubility (physchem): 44 µg/mL (≈ 93.9 µM)

Compound: O=C(Cn1c(Cl)cnc(NCC(F)(F)c2ccccn2)c1=O)NCc1cc(Cl)ccc1-n1cnnn1
2aPTT (Plasma): 180 nM
pKi (Prothrombin [4]): 11.82 to 11.85

Compound: O=C(Cn1c(Cl)cnc(NCC(F)(F)c2cccc[n+]2[O-])c1=O)NCc1cc(Cl)ccc1-n1cncn1
2aPTT (Plasma): 200 nM

Compound: N=C(N)NCCC[C@H](NC(=O)[C@H](Cc1cccnc1)NC(=O)[C@H](Cc1ccccc1)NS(=O)(=O)c1ccccc1)C(=O)c1nccs1
pIC50 (Prothrombin [5]): 4.00
pIC50 [6]: 6.70

Compound: CC(C)Nc1nc(Cl)c(-c2cc(N)cc(C(=O)O)c2)n(CC(=O)NCc2ccc(C(=N)N)cc2)c1=O
pIC50 (Coagulation factor X [1]): < 4.00
Cp [10]: 107 µg/mL

Compound: O=C(Cn1c(Cl)cnc(NCC(F)(F)c2ccccn2)c1=O)NCc1ncccc1F [DPOC-4088]
2aPTT (Plasma): 780 nM
Ki (Trypsin [2]): 202 µM
half-life (in vivo): 6.6 to 9.7 h
solubility (physchem): 11 µg/mL (≈ 24.3 µM)

Results, then the molecule that gave them:

Ki (Trypsin [3]): 95 µM
Compound: Cc1cnc(NCCc2ccccc2)c(=O)n1CC(=O)NCc1cc2cc[nH]c2cn1

Ki (Trypsin [3]): 200 µM
Compound: Cc1cnc(NCCc2ccccn2)c(=O)n1CC(=O)NCc1cc2cc[nH]c2cn1

Ki (Trypsin [3]): 290 µM
Compound: Cc1cnc(NCCc2ccccn2)c(=O)n1CC(=O)NCc1ccc2[nH]ccc2c1

pIC50 [7]: 5.59
pIC50 (Coagulation factor X [8]): 4.05
Compound: O=c1oc(-c2ccccc2F)nc2cnccc12

pIC50 [7]: 4.74
pIC50 (Coagulation factor X [8]): < 3.70
pIC50 (Prothrombin [9]): 3.89
Compound: Cc1ccccc1-c1nc2c(cnn2C)c(=O)o1

pIC50 [7]: 5.55
pIC50 (Coagulation factor X [8]): 4.49
pIC50 (Prothrombin [9]): 4.84
Compound: O=c1oc(-c2ccccc2F)nc2ncccc12

pIC50 [7]: 5.85
pIC50 (Coagulation factor X [8]): 3.76
pIC50 (Prothrombin [9]): 3.87
Compound: O=c1oc(-c2c(F)cccc2F)nc2cc(C(F)(F)F)ccc12

pIC50 [7]: 5.89
pIC50 (Coagulation factor X [8]): < 3.70
pIC50 (Prothrombin [9]): < 3.70
Compound: O=c1oc(-c2c(F)cccc2F)nc2cnccc12

pIC50 [7]: < 3.70
Compound: O=c1oc(-c2ccccc2F)nc2nccnc12

pIC50 [7]: 6.09
pIC50 (Coagulation factor X [8]): 3.95
pIC50 (Prothrombin [9]): < 3.70
Compound: O=c1oc(-c2c(F)cccc2F)nc2cc([N+](=O)[O-])ccc12

pIC50 [7]: 4.82
pIC50 (Coagulation factor X [8]): < 3.70
pIC50 (Prothrombin [9]): < 3.70
Compound: CCSc1ncc2c(=O)oc(-c3ccccc3F)nc2n1

Ki (Trypsin [3]): > 100 µM
Compound: Cc1cnc(NCCc2ccccc2)c(=O)n1CC(=O)NCc1ccc2[nH]ccc2c1

Ki (Trypsin [3]): 3.2 µM
Compound: Cc1nc(N)ccc1CNC(=O)Cn1c(C)ccc(NS(=O)(=O)Cc2ccccc2)c1=O [L-374087]

Cp [11]: 3 µg/mL
Compound: Cc1nc(N)ccc1CNC(=O)Cn1c(C)cnc(NCCc2ccccc2)c1=O [L-375378]
